Legend:
Experiment in all cases: relative viability (nuclei count vs DMSO), 5 days (fraction); higher = more cells survive
[1] = compound: C1CNCCC1C2=CC(=NN2)C3=CC=NC=C3 + O=C(c1cc(Cc2n[nH]c(=O)c3ccccc23)ccc1F)N1CCN(C(=O)C2CC2)CC1 [Olaparib] (partner 8 µM)
Method in brief: (§1)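 Relative viability divides the nuclei count in treated wells by that in vehicle wells. Lung cancer cell lines were seeded in 1536-well plates, dosed by pin tool the next day, and fixed and stained after 5 days in one step with final 0.05% Triton X-100, 1% formaldehyde and 1 ug/ml Hoechst. Dosing was a single drug or a fixed anchor-drug dose plus five library-drug doses (not always all listed) in √10 steps, and values are medians of duplicate plates imaged at 4×.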

[2] = compound: C[C@@H](N)c1ccc(C(=O)Nc2ccnc3[nH]ccc23)cc1 + Cc1nc(Nc2ncc(C(=O)Nc3c(C)cccc3Cl)s2)cc(N2CCN(CCO)CC2)n1 [Dasatinib] (partner 0.075 µM)
Method in brief: as §1

[3] = compound: C[C@@H](N)c1ccc(C(=O)Nc2ccnc3[nH]ccc23)cc1 + Cc1nc(NC(=O)N2CCC[C@H]2C(N)=O)sc1-c1ccnc(C(C)(C)C(F)(F)F)c1 [Alpelisib] (partner 2 µM)
Method in brief: as §1

[4] = compound: C1CNCCC1C2=CC(=NN2)C3=CC=NC=C3 + C[C@]1(O)C[C@@H](c2nc(-c3ccc4ccc(-c5ccccc5)nc4c3)c3c(N)nccn32)C1 [Linsitinib] (partner 1 µM)
Method in brief: as §1

Row | Cell Line | relative viability ([1]; first compound 0.08 µM) | relative viability ([1]; first compound 0.8 µM) | relative viability ([1]; first compound 2.53 µM) | relative viability ([1]; first compound 8 µM) | relative viability ([2]; first compound 0.04 µM) | relative viability ([2]; first compound 0.1265 µM) | relative viability ([2]; first compound 0.4 µM) | relative viability ([2]; first compound 1.265 µM) | relative viability ([2]; first compound 4 µM) | relative viability ([3]; first compound 0.04 µM) | relative viability ([3]; first compound 0.1265 µM) | relative viability ([3]; first compound 0.4 µM) | relative viability ([3]; first compound 1.265 µM) | relative viability ([3]; first compound 4 µM) | relative viability ([4]; first compound 0.08 µM) | relative viability ([4]; first compound 0.8 µM) | relative viability ([4]; first compound 2.53 µM) | relative viability ([4]; first compound 8 µM)
1 | EMC-BAC-2 | 0.346 | 0.521 | 0.476 | 0.477 | 0.263 | 0.337 | 0.314 | 0.266 | 0.315 | 0.772 | 0.723 | 0.696 | 0.74 | 0.54 | 0.78 | 0.806 | 0.818 | 0.771
2 | NCI-H520 | 0.332 | 0.356 | 0.381 | 0.266 | 0.212 | 0.205 | 0.181 | 0.219 | 0.196 | 0.971 | 0.969 | 1.21 | 1.12 | 1.07 | 0.883 | 1.04 | 0.867 | 0.912
3 | NCI-H1755 | 0.974 | 0.922 | 0.857 | 0.852 | 0.292 | 0.449 | 0.457 | 0.316 | 0.223 | 0.935 | 0.899 | 0.886 | 0.856 | 0.635 | 1.01 | 0.966 | 0.969 | 0.916
4 | NCI-H1993 | 0.937 | 0.918 | 1.02 | 1.21 | 0.745 | 0.754 | 0.856 | 0.917 | 0.8 | 0.693 | 0.694 |  | 0.718 | 0.685 | 0.748 | 0.67 | 0.732 | 0.798
5 | NCI-H23 | 0.375 |  | 0.403 | 0.349 | 0.77 | 0.736 | 0.862 |  | 0.76 | 0.802 | 0.766 | 0.883 |  | 0.608 | 0.5 | 0.642 | 0.675 | 0.644
6 | NCI-H1437 | 0.636 | 0.644 | 0.679 | 0.642 | 0.451 | 0.292 | 0.372 | 0.471 | 0.393 | 0.899 | 0.935 | 0.945 | 0.934 | 0.764 | 0.986 | 1.03 | 1.16 | 1.05
7 | SK-MES-1 | 0.553 | 0.849 | 0.714 | 0.684 | 0.398 | 0.398 | 0.358 | 0.279 | 0.334 | 1 | 0.986 | 1.01 | 0.786 | 0.834 | 1.07 | 1.1 | 1.15 | 0.953
8 | NCI-H2405 | 0.843 | 0.952 | 0.894 | 0.831 | 0.186 | 0.2 | 0.187 | 0.19 | 0.162 |  | 0.783 | 0.536 | 0.413 | 0.217 | 0.979 | 0.771 | 1.07 | 0.913
9 | NCI-H2023 | 0.354 | 0.494 | 0.488 | 0.538 | 0.592 | 0.56 | 0.502 | 0.487 | 0.465 | 0.684 | 0.681 | 0.836 | 0.681 | 0.608 | 0.62 | 0.671 | 0.629 | 0.647

— the supplement of paper PMC10307832
